Values quoted from earlier work as cited in PubChem BioAssay AID1259409 (Chemical Carcinogenesis Research Information System (CCRIS), 2018).

Tested on: rodent chemically induced tumor inhibition, incidence and multiplicity
Assay: CCRIS tumor inhibitor studies
Settings: Dose [Inhibitor]: 0

SMILES	tumour outcome (control, treated, inhibition, significance) (Carcinogen: 7,12-DIMETHYLBENZ[A]ANTHRACENE, 57-97-6, 85 NMOL IN 0.1 ML ACETONE 2/WK FOR 20 WK APPLIED 1 HR PRIOR TO EACH PROMOTER DOSE (STUDY DURATION: 20 WK), Route [Inhibitor]: DERMAL, Species: MOUSE, Strain/Sex: ICR/FEMALE, Target Tissue: Type of Lesion: SKIN: PAPILLOMA, Dose [Carcinogen]: 100 UG IN 0.1 ML ACETONE ONCE, Promoter: 12-O-TETRADECANOYLPHORBOL-13-ACETATE, 16561-29-8)	tumour outcome (control, treated, inhibition, significance) (Carcinogen: 4-(METHYLNITROSAMINO)-1-(3-PYRIDYL)-1-BUTANONE, 64091-91-4, 0.2 UMOL 1/D FOR 4 D ADMINISTERED PRIOR TO CARCINOGEN TREATMENT (STUDY DURATION: 116 D), Route [Inhibitor]: GAVAGE, Species: MOUSE, Strain/Sex: STRAIN A, Target Tissue: Type of Lesion: LUNG: ADENOMA, Dose [Carcinogen]: 10 UMOL ONCE 2 HR AFTER FINAL DOSE OF INHIBITOR, Promoter: NONE USED)	tumour outcome (control, treated, inhibition, significance) (Carcinogen: 4-(METHYLNITROSAMINO)-1-(3-PYRIDYL)-1-BUTANONE, 64091-91-4, 1 UMOL 1/D FOR 4 D ADMINISTERED PRIOR TO CARCINOGEN TREATMENT (STUDY DURATION: 116 D), Route [Inhibitor]: GAVAGE, Species: MOUSE, Strain/Sex: STRAIN A, Target Tissue: Type of Lesion: LUNG: ADENOMA, Dose [Carcinogen]: 10 UMOL ONCE 2 HR AFTER FINAL DOSE OF INHIBITOR, Promoter: NONE USED)	tumour outcome (control, treated, inhibition, significance) (Carcinogen: 4-(METHYLNITROSAMINO)-1-(3-PYRIDYL)-1-BUTANONE, 64091-91-4, 5 UMOL 1/D FOR 4 D ADMINISTERED PRIOR TO CARCINOGEN DOSE (STUDY DURATION: 116 D), Route [Inhibitor]: GAVAGE, Species: MOUSE, Strain/Sex: STRAIN-A, Target Tissue: Type of Lesion: LUNG: ADENOMA, Dose [Carcinogen]: 10 UMOL IN SALINE ADMINISTERED 2 HR POST LAST AGENT DOSE, Promoter: NONE USED)	tumour outcome (control, treated, inhibition, significance) (Carcinogen: 4-(N-NITROSOMETHYLAMINO)-1-(3-PYRIDYL)-1-BUTANONE, 64091-91-4, 5 UMOL/D FOR 4 CONSECUTIVE DAYS (STUDY DURATION: 16.5 WK), Route [Inhibitor]: GAVAGE, Species: MOUSE, Strain/Sex: STRAIN-A/FEMALE, Target Tissue: Type of Lesion: LUNG: ADENOMA, Dose [Carcinogen]: 10 UMOL ONCE 2 HR POST LAST AGENT DOSE, Promoter: NONE USED)	tumour outcome (control, treated, inhibition, significance) (Carcinogen: 4-METHYLNITROSAMINO-1-(3-PYRIDYL)-1-BUTANONE,64091-91-4, 5 UMOL 1/D FOR 4 D ADMINISTERED PRIOR TO CARCINOGEN TREATMENT (STUDY DURATION 116 D), Route [Inhibitor]: GAVAGE, Species: MOUSE, Strain/Sex: STRAIN A, Target Tissue: Type of Lesion: LUNG: ADENOMA, Dose [Carcinogen]: 10 UMOL ONCE 2 HR AFTER FINAL DOSE OF INHIBITOR, Promoter: NONE USED)	tumour outcome (control, treated, inhibition, significance) (Carcinogen: N-NITROSOMETHYLBENZYLAMINE, 937-40-6, 0.4 UMOL/G IN DIET FOR 25 WK BEGINNING 2 WK PRIOR TO CARCINOGEN TREATMENT (STUDY DURATION: 25 WK), Route [Inhibitor]: ORAL, Species: RAT, Strain/Sex: F344/MALE, Target Tissue: Type of Lesion: ESOPHAGUS: TUMOR, Dose [Carcinogen]: 0.5 MG/KG BW IN 20% DMSO 1/WK FOR 15 WK, Promoter: NONE USED)	tumour outcome (control, treated, inhibition, significance) (Carcinogen: N-NITROSOMETHYLBENZYLAMINE, 937-40-6, 1 UMOL/G IN DIET FOR 25 WK BEGINNING 2 WK PRIOR TO CARCINOGEN TREATMENT (STUDY DURATION: 25 WK), Route [Inhibitor]: ORAL, Species: RAT, Strain/Sex: F344/MALE, Target Tissue: Type of Lesion: ESOPHAGUS: TUMOR, Dose [Carcinogen]: 0.5 MG/KG BW IN 20% DMSO 1/WK FOR 15 WK, Promoter: NONE USED)	tumour outcome (control, treated, inhibition, significance) (Carcinogen: N-NITROSOMETHYLBENZYLAMINE, 937-40-6, 2.5 UMOL/G IN DIET FOR 25 WK BEGINNING 2 WK PRIOR TO CARCINOGEN TREATMENT (STUDY DURATION: 25 WK), Route [Inhibitor]: ORAL, Species: RAT, Strain/Sex: F344/MALE, Target Tissue: Type of Lesion: ESOPHAGUS: TUMOR, Dose [Carcinogen]: 0.5 MG/KG BW IN 20% DMSO 1/WK FOR 15 WK, Promoter: NONE USED)
COc1cc(C2OCC3C(c4ccc5c(c4)OCO5)OCC23)ccc1O (centres undefined)	100%, 80%, 20%, not calculated	–	–	–	–	–	–	–	–
S=C=NCCCc1ccccc1	–	100%, 90%, 10%, not significant	100%, 75%, 25%, not significant	100%, 37%, 63%, p<0.001	100%, 37%, 63%, not calculated	100%, 11%, 89%, p<0.05	100%, 7%, 93%, p<0.05	100%, 7%, 93%, p<0.05	100%, 0%, 100%, p<0.05
